In US20260001864A1, “COMPOUND CONTAINING SULFAMIDE STRUCTURE, AND PREPARATION METHOD THEREFOR AND APPLICATION THEREOF, AND PHARMACEUTICAL COMPOSITION AND APPLICATION” (Nanjing Shuohui Pharmatechnology Co., Ltd, priority 2021, published 2026):
pIC50: −log10 of the molar value. Counter-ions that a name gives are not always drawn.

biological target: H+/K+-ATPase (rabbit gastric mucosal microsomes) (Oryctolagus cuniculus (Rabbit), UniProt P27112); test: In vitro screening test of H+/K+-ATPase inhibition (malachite green); assay type: biochemical; conditions: pH 6.5, 37° C. 30 min, read-out: IC50, inhibitory effect on H+/K+-ATPase activity
From the text: This test example evaluates the inhibitory effects of the compounds of the present invention on the activity of H+/K+-ATPase by an in vitro screening test, and expresses them with the IC50 values of the compounds (obtained by calculating the inhibition rates at different concentrations).
• Compound solutions: The products (i.e., the compounds or the hydrochloride salt of compounds) obtained in the foregoing preparation examples of the present invention were each independently dissolved in DMSO to form solutions at suitable concentrations; • Buffer I: 50 mmol/L HEPEs-Tris, pH=6.5, 5 mmol/L magnesium chloride, […] valinomycin (J&K Scientific Ltd., goods No.: 227304); • Buffer II: 50 mmol/L HEPEs-Tris, pH=6.5, 5 mmol/L magnesium chloride, […] valinomycin, 5 mmol/L potassium chloride; • 5-adenosine triphosphate (ATP, Sigma-Aldrich, goods No.: A2383) solution: Dilute ATP with buffer I to 5 mM; • Malachite green solution: Dissolve 0.12 wt % malachite green (J&K Scientific Ltd., goods No.: 913120) in 2.5 mol/L sulfuric acid, 7.5 wt % ammonium molybdate (J&K Scientific Ltd., goods No.: 128321) and 11% Tween 20(V/V). During use, sulfuric acid, ammonium molybdate and Tween 20 are mixed in a ratio of 100:25:2; • Rabbit gastric mucosal microsomes (rich in H+/K+-ATPase, self-extracted), extracted by sucrose gradient centrifugation: The rabbit stomach was washed with tap water and 3M NaCl solution, respectively, and then the surface water was removed with filter paper. A pre-cooled homogenization buffer (4 ml/g tissue) was added and homogenized for 2-5 min in a tissue homogenizer. After the homogenizing, if there are large tissue particles, they can be removed by centrifugation (600 g, 10 min). The supernatant was then transferred to a clean centrifuge tube and centrifuged at 20,000 g for 30 min, then the supernatant was transferred to a clean centrifuge tube and further centrifuged at 100,000 g for 90 min and the precipitate was collected; the precipitate was suspended in homogenate and blown evenly, and the protein concentration was measured by the Bradford's method and adjusted to 10 mg/ml; 7.5 wt % Ficoll's layering solution was added in equal proportions. After centrifugation at 100,000 g for 60 min, the middle layer (H^+/K^+-ATPase-enriched gastric membranes) was collected in a clean centrifuge tube, diluted with homogenate by 4-5 times, and then centrifuged at 100,000 g for another 90 min, and the precipitate was collected; the precipitate was suspended in homogenate and homogenized in a glass homogenizer, and the protein concentration was measured by the Bradford's method and adjusted to 22.5 mg/ml. It was frozen at −80° C. and stored for future use.
5 μL of rabbit gastric mucosal microsomes (H^+/K^+-ATPase) was added to 45 μL of buffer II, then 5 μL of compound solution was added, and then 5 μL of 5 mM ATP solution was added to start the reaction and pre-react at 37° C. for 30 min. 15 μL of malachite green solution was added to terminate the reaction, balancing was conducted at room temperature for 20 min, and read the optical absorbance at 620 nm.
Meanwhile, the reaction of the same volume was carried out without addition of potassium chloride as a background, which was subtracted when calculating enzymatic activity.

Sequence of H+/K+-ATPase (rabbit gastric mucosal microsomes) (P27112 whole entry): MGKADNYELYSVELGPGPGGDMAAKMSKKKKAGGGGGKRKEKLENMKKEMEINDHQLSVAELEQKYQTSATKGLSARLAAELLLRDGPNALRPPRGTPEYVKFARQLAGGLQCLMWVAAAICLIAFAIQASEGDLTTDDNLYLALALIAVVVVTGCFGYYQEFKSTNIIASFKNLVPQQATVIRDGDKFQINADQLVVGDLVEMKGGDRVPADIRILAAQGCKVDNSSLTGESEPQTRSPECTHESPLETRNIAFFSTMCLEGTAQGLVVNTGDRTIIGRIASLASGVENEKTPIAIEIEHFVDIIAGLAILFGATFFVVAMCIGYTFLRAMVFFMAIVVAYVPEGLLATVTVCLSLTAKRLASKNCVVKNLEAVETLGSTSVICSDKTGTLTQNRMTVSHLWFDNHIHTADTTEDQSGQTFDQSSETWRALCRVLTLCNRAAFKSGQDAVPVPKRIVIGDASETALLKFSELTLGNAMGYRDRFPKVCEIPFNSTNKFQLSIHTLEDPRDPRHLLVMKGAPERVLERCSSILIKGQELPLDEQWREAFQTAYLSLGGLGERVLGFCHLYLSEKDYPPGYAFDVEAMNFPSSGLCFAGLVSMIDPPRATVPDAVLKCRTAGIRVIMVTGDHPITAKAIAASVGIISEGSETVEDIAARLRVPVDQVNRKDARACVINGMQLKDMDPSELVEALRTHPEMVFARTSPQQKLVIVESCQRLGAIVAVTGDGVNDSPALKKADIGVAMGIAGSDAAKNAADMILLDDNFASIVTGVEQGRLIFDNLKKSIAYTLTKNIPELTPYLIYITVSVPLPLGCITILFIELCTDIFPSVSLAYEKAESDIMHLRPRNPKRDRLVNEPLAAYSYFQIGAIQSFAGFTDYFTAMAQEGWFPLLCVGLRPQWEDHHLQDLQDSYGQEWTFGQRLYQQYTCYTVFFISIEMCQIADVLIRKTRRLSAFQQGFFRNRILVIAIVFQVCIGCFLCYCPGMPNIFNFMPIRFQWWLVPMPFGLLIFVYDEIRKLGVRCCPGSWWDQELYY
Sequence of H+/K+-ATPase (rabbit gastric mucosal microsomes) (P18597 whole entry partner): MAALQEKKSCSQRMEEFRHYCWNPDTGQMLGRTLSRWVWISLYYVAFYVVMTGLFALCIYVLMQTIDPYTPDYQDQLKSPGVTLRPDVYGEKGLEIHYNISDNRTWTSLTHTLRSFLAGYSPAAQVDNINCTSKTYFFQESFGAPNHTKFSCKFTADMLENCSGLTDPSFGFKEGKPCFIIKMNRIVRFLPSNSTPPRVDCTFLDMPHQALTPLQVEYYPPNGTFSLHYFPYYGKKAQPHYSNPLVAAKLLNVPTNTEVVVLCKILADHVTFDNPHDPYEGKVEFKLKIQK

| pIC50 | Compound |
| --- | --- |
| 7.33 | CNCc1cc(-c2ccc(OCc3ccc(F)c(F)c3)cc2F)n(S(=O)(=O)c2cccnc2)c1 [Compound 57] |
| 6.05 | CNCc1cc(-c2ccc(OC(C)C3CCOCC3)cc2F)n(S(=O)(=O)c2cccc(OCC3CCC3)c2)c1 (stereo not shown) [Compound 33] |
| 6.43 | CNCc1cc(-c2ccc(OCC(C)(C)O)cc2F)n(S(=O)(=O)c2cccnc2)c1 [Compound 52] |
| 7.36 | CNCc1cc(-c2ccc(OCc3ccccc3OC)cc2F)n(S(=O)(=O)c2cccc(OCCOC)c2)c1 [Compound 87] |
| 7.26 | CNCc1cc(-c2ccc(OC(C)C3CCOCC3)cc2F)n(S(=O)(=O)c2cccc(C(F)(F)F)c2)c1 (stereo not shown) [Compound 10] |
| 6.63 | CNCc1cc(-c2ccc(OC(C)C3CCOCC3)cc2F)n(S(=O)(=O)c2cccc(F)c2)c1 (stereo not shown) [Compound 19] |
| 6.25 | CNCc1cc(-c2ccc(OCc3ccncc3)cc2F)n(S(=O)(=O)c2cccnc2)c1 [Compound 74] |
| 6.31 | CNCc1cc(-c2ccc(OCc3cc(F)ccc3F)cc2F)n(S(=O)(=O)c2cccc(C(F)(F)F)c2)c1 [Compound 98] |
| 6.60 | CNCc1cc(-c2ccc(OC(C)C3CCOCC3)cc2F)n(S(=O)(=O)c2c(F)cccc2F)c1 (stereo not shown) [Compound 16] |
| 7.08 | CNCc1cc(-c2ccc(OC(C)C3CCOCC3)cc2F)n(S(=O)(=O)c2cccc(OC)c2)c1 (stereo not shown) [Compound 15] |
| 7.29 | CNCc1cc(-c2ccc(OCc3ccc(OC(F)F)cc3)cc2F)n(S(=O)(=O)c2cccnc2)c1 [Compound 61] |
| 7.29 | CNCc1cc(-c2ccc(OCc3cccc4c3OCCO4)cc2F)n(S(=O)(=O)c2cccnc2)c1 [Compound 96] |
| 7.23 | CNCc1cc(-c2ccc(OCC3CCOCC3)cc2F)n(S(=O)(=O)c2cccc(Cl)c2)c1 [Compound 25] |
| 6.47 | CNCc1cc(-c2ccc(OC(C)c3c(F)cccc3F)cc2F)n(S(=O)(=O)c2cccc(OCC3CC3)c2)c1 (stereo not shown) [Compound 72] |
| 6.70 | CNCc1cc(-c2ccc(OCC3CCOCC3)cc2F)n(S(=O)(=O)c2ccc(C)c(F)c2)c1 [Compound 26] |
| 6.79 | CNCc1cc(-c2ccc(OCc3ccc(C(=O)O)cc3)cc2F)n(S(=O)(=O)c2cccnc2)c1 [Compound 64] |

| pIC50 | Compound |
| --- | --- |
| 7.92 | CNCc1cc(-c2ccc(OCc3cccc4c3OCCO4)cc2F)n(S(=O)(=O)c2cccc(C#N)c2)c1 [Compound 97] |
| 6.54 | CNCc1cc(-c2ccc(OCC3CCOCC3)cc2F)n(S(=O)(=O)c2cccc(OCC3CCCC3)c2)c1 [Compound 34] |
| 6.40 | CNCc1cc(-c2ccc(OCC(F)F)cc2F)n(S(=O)(=O)c2cccnc2)c1 [Compound 42] |
| 7.32 | CNCc1cc(-c2ccc(OCc3cccc4c3OCO4)cc2F)n(S(=O)(=O)c2cccnc2)c1 [Compound 94] |
| 6.87 | CNCc1cc(-c2ccc(OCC3CCOCC3)cc2F)n(S(=O)(=O)c2cccc(F)c2)c1 [Compound 24] |
| 7.88 | CNCc1cc(-c2ccc(OCc3c(F)cccc3F)cc2F)n(S(=O)(=O)c2cccnc2)c1 [Compound 56] |
| 7.08 | CNCc1cc(-c2ccc(OCC3CCC(F)(F)CC3)cc2F)n(S(=O)(=O)c2cccnc2)c1 [Compound 5] |
| 5.57 | CNCc1cc(-c2ccc(OCc3ccc4ccccc4c3)cc2F)n(S(=O)(=O)c2cccc(OCCCCOC)c2)c1 [Compound 90] |
| 6.35 | CNCc1cc(-c2ccc(OC(C)c3c(F)cccc3F)cc2F)n(S(=O)(=O)c2cccc(OCCCOC)c2)c1 (stereo not shown) [Compound 88] |
| 7.38 | CNCc1cc(-c2ccc(OCc3ccccc3OC(F)F)cc2F)n(S(=O)(=O)c2cccnc2)c1 [Compound 59] |
| 6.86 | CNCc1cc(-c2ccc(OC(C)C3CCOCC3)cc2F)n(S(=O)(=O)c2cc(F)ccc2F)c1 (stereo not shown) [Compound 12] |
| 8.02 | CNCc1cc(-c2ccc(OCc3cccc4c3OCO4)cc2F)n(S(=O)(=O)c2cccc(C#N)c2)c1 [Compound 95] |
| 6.23 | CNCc1cc(-c2ccc(OC[C@@H]3COCCO3)cc2F)n(S(=O)(=O)c2cccnc2)c1 [Compound 1, (S)-1-(5-(4-((1,4-dioxane-2-yl)methoxy)-2-fluorophenyl)-1-(pyridine-3-ylsulfonyl)-1H-pyrrole-3-yl)-N-methyl methylamine hydrochloride] |
| 7.60 | CNCc1cc(-c2ccc(OC(C)C3CCOCC3)cc2F)n(S(=O)(=O)c2cc(F)cc(F)c2)c1 (stereo not shown) [Compound 9] |
| 6.30 | CNCc1cc(-c2ccc(OC(C)c3cc(F)cc(F)c3)cc2F)n(S(=O)(=O)c2cccc(OCC3CC3)c2)c1 (stereo not shown) [Compound 71] |

Second part, the compound before the results:

| Compound | pIC50 |
| --- | --- |
| CNCc1cc(-c2ccc(OCc3ccc(C)cc3C)cc2F)n(S(=O)(=O)c2cccnc2)c1 [Compound 73] | 6.68 |
| CNCc1cc(-c2ccc(OCCc3cc(F)cc(F)c3)cc2F)n(S(=O)(=O)c2cccnc2)c1 [Compound 99] | 7.14 |
| CNCc1cc(-c2ccc(OCC(C)C)cc2F)n(S(=O)(=O)c2cccnc2)c1 [Compound 44] | 6.30 |
| CNCc1cc(-c2ccc(OCC3CCNCC3)cc2F)n(S(=O)(=O)c2cccnc2)c1 [Compound 21] | 5.55 |
| CNCc1cc(-c2ccc(OC(C)c3c(F)cccc3F)cc2F)n(S(=O)(=O)c2cccc(OCCCCOC)c2)c1 (stereo not shown) [Compound 91] | 6.16 |
| CNCc1cc(-c2ccc(OC(C)c3c(F)cccc3F)cc2F)n(S(=O)(=O)c2cccc(OCC3CCCC3)c2)c1 (stereo not shown) [Compound 85] | 5.01 |
| CNCc1cc(-c2ccc(OC(C)C3CCOCC3)cc2F)n(S(=O)(=O)c2cccc(C#N)c2)c1 (stereo not shown) [Compound 13] | 6.94 |
| CNCc1cc(-c2ccc(O[C@@H](C)c3c(Cl)ccc(F)c3Cl)cc2F)n(S(=O)(=O)c2cccnc2)c1 [Compound 66] | 6.31 |
| CCOc1ccc(-c2cc(CNC)cn2S(=O)(=O)c2cccnc2)c(F)c1 [Compound 41] | 6.25 |
| CNCc1cc(-c2ccc(OCc3cc(F)ccc3F)cc2F)n(S(=O)(=O)c2cccc(OCC3CCCC3)c2)c1 [Compound 84] | 6.96 |
| CNCc1cc(-c2ccc(OCc3cc(F)ccc3F)cc2F)n(S(=O)(=O)c2ccc(C)c(F)c2)c1 [Compound 81] | 7.25 |
| CNCc1cc(-c2ccc(OCC(C)(C)C)cc2F)n(S(=O)(=O)c2cccnc2)c1 [Compound 45] | 6.69 |
| CNCc1cc(-c2ccc(OC(C)c3c(F)cccc3F)cc2F)n(S(=O)(=O)c2cccc(OCC3CCC3)c2)c1 (stereo not shown) [Compound 83] | 4.87 |
| CNCc1cc(-c2ccc(OCC3CCN(C)CC3)cc2F)n(S(=O)(=O)c2cccnc2)c1 [Compound 22] | 6.34 |
| CNCc1cc(-c2ccc(OCC3CCOCC3)cc2F)n(S(=O)(=O)c2cccc(C(F)(F)F)c2)c1 [Compound 39] | 7.46 |
| CNCc1cc(-c2ccc(OCC3CCCCC3)cc2F)n(S(=O)(=O)c2cccnc2)c1 [Compound 4] | 7.51 |
| CCNCc1cc(-c2ccc(OCC3CCOCC3)cc2F)n(S(=O)(=O)c2cccnc2)c1 [Compound 46] | 6.19 |
| CNCc1cc(-c2ccc(OCc3ccsc3)cc2F)n(S(=O)(=O)c2cccnc2)c1 [Compound 77] | 6.92 |
| CNCc1cc(-c2ccc(OC(C)C3CCOCC3)cc2F)n(S(=O)(=O)c2ccc(C#N)cc2)c1 (stereo not shown) [Compound 18] | 6.58 |
| CNCc1cc(-c2ccc(OC[C@H]3CO3)cc2F)n(S(=O)(=O)c2cccnc2)c1 [Compound 49] | 6.84 |
| CNCc1cc(-c2ccc(OC(C)c3c(F)cccc3F)cc2F)n(S(=O)(=O)c2cccc(C#N)c2)c1 (stereo not shown) [Compound 69] | 6.94 |
| CNCc1cc(-c2ccc(OCC3CCOCC3)cc2F)n(S(=O)(=O)c2ccc(C#N)cc2)c1 [Compound 29] | 6.54 |
| CNCc1cc(-c2ccc(OC(C)C3CCOCC3)c(F)c2)n(S(=O)(=O)c2cccnc2)c1 (stereo not shown) [Compound 47] | 6.61 |
| CNCc1cc(-c2ccc(OCc3cc(F)ccc3F)cc2F)n(S(=O)(=O)c2cccc(F)c2)c1 [Compound 79] | 7.26 |
| CNCc1cc(-c2ccc(OCc3cc(F)cc(F)c3)cc2F)n(S(=O)(=O)c2cccnc2)c1 [Compound 58] | 7.59 |
| CNCc1cn(S(=O)(=O)c2cccnc2)c(-c2ccc(OCC3CC3)cc2F)c1F [Compound 51] | 7.45 |
| CCCCCOc1cccc(S(=O)(=O)n2cc(CNC)cc2-c2ccc(OCC3CCCCC3)cc2F)c1 [Compound 36] | 5.64 |
